Experimental data published in publication PMC6023086, “Improving the Activity of Trp-Rich Antimicrobial Peptides by Arg/Lys Substitutions and Changing the Length of Cationic Residues” (Biomolecules, 2018).
≈ marks a conversion by molar mass, not a printed value. Where a SMILES comes first, the peptide text is derived from it. Where no end group is shown, it is not given here. [ ]: non-standard residue; d: D form. Orn = NCCC[C@H](N)C(=O)O; Dab = NCC[C@H](N)C(=O)O; Dap = NC[C@H](N)C(=O)O

The compounds below were run on Escherichia coli ATCC 25922. Details: ATCC 25922, 16 h.
Assay type: cell-based
Description: The antibacterial activity of the Tritrp-derived peptides and other AMPs was assessed against E. coli ATCC 25922, as a representative of Gram-negative bacteria, incubated in Mueller-Hinton broth media (Table 2). […] Arg-to-Lys mutations were correlated with a decrease in activity for almost all peptides. […] The lack of sensitivity of the activity of the Tritrp3 peptide to the nature of the positively charged residues prompted a more detailed study of the structure-activity relationship. Tritrp7 and Tritrp8 are analogs of Tritrp3 where only a single Pro residue is mutated by Ala. These mutations are known to alter the 3D structure of the peptides when interacting with sodium dodecyl sulfate (SDS) micelles, specifically reducing the helicity of the original Tritrp3 peptide (Table 1).
The antibacterial activity for the peptides in this study against E. coli ATCC 25922 was determined by the broth microdilution method. Briefly, E. coli cells at 5 × 10^5 cfu/mL, obtained from a single colony culture, were incubated in Mueller Hinton broth (MHB) media (Sigma Aldrich, St. Louis, MO, USA) in the presence of two-fold dilution of peptides (0–256 µM) in 96-well polypropylene microtiter plates (Sigma Aldrich, St. Louis, MO, USA). The plates were incubated at 37 °C for 16 h, and the minimal inhibitory concentration was determined after incubation as the minimal peptide concentration at which cell growth was not observed.

MIC | Compound
4 µM (≈ 6.48 µg/mL) | CC(C)C[C@H](NC(=O)[C@H](Cc1ccccc1)NC(=O)[C@@H]1CCCN1C(=O)[C@H](Cc1c[nH]c2ccccc12)NC(=O)[C@H](Cc1c[nH]c2ccccc12)NC(=O)[C@H](Cc1c[nH]c2ccccc12)NC(=O)[C@@H]1CCCN1C(=O)[C@H](Cc1ccccc1)NC(=O)[C@H](CN)NC(=O)[C@H](CN)NC(=O)[C@@H](N)C(C)C)C(=O)N[C@@H](CN)C(=O)N[C@@H](CN)C(N)=O [Tritrp–Dap] (H-V[Dap][Dap]FPWWWPFL[Dap][Dap]-NH2)
2 to 4 µM | CC(C)C[C@H](NC(=O)[C@H](Cc1ccccc1)NC(=O)[C@@H]1CCCN1C(=O)[C@H](Cc1c[nH]c2ccccc12)NC(=O)[C@H](Cc1c[nH]c2ccccc12)NC(=O)[C@H](Cc1c[nH]c2ccccc12)NC(=O)[C@@H]1CCCN1C(=O)[C@H](Cc1ccccc1)NC(=O)[C@H](CCCNC(=N)N)NC(=O)[C@H](CCCNC(=N)N)NC(=O)[C@@H](N)C(C)C)C(=O)N[C@@H](CCCNC(=N)N)C(=O)N[C@@H](CCCNC(=N)N)C(N)=O [Tritrp–Arg]
8 µM | VRRFAWWWPFLRR-NH2 [Tritrp7–Arg]
16 µM (≈ 27.7 µg/mL) | CC(C)C[C@H](NC(=O)[C@H](Cc1ccccc1)NC(=O)[C@@H]1CCCN1C(=O)[C@H](Cc1c[nH]c2ccccc12)NC(=O)[C@H](Cc1c[nH]c2ccccc12)NC(=O)[C@H](Cc1c[nH]c2ccccc12)NC(=O)[C@@H]1CCCN1C(=O)[C@H](Cc1ccccc1)NC(=O)[C@H](CCCN)NC(=O)[C@H](CCCN)NC(=O)[C@@H](N)C(C)C)C(=O)N[C@@H](CCCN)C(=O)N[C@@H](CCCN)C(N)=O [Tritrp–Orn] (H-V[Orn][Orn]FPWWWPFL[Orn][Orn]-NH2)
16 µM | VKKFPWWWPFLKK-NH2 [Tritrp–Lys]
8 µM | GIGRWLHSARRFGRAFVGEIMNS [Magainin2-F5W–Arg]
4 µM (≈ 7.83 µg/mL) | CC(C)C[C@H](NC(=O)[C@H](Cc1ccccc1)NC(=O)[C@@H]1CCCN1C(=O)[C@H](Cc1c[nH]c2ccccc12)NC(=O)[C@H](Cc1c[nH]c2ccccc12)NC(=O)[C@H](Cc1c[nH]c2ccccc12)NC(=O)[C@@H]1CCCN1C(=O)[C@H](Cc1ccccc1)NC(=O)[C@H](CCCCNC(=N)N)NC(=O)[C@H](CCCCNC(=N)N)NC(=O)[C@@H](N)C(C)C)C(=O)N[C@@H](CCCCNC(=N)N)C(=O)N[C@@H](CCCCNC(=N)N)C(N)=O [Tritrp–hArg]
32 µM | VKKFAWWWPFLKK-NH2 [Tritrp7–Lys]
16 µM | ILPWKWPWWPWKK-NH2 [Indolicidin–Lys]
2 to 4 µM | VRRFPWWWAFLRR-NH2 [Tritrp8–Arg]
2 µM | VKKFAWWWAFLKK-NH2 [Tritrp3–Lys]
2 µM | VRRFAWWWAFLRR-NH2 [Tritrp3–Arg]
4 µM (≈ 7.38 µg/mL) | CC(C)C[C@H](NC(=O)[C@H](Cc1ccccc1)NC(=O)[C@@H]1CCCN1C(=O)[C@H](Cc1c[nH]c2ccccc12)NC(=O)[C@H](Cc1c[nH]c2ccccc12)NC(=O)[C@H](Cc1c[nH]c2ccccc12)NC(=O)[C@@H]1CCCN1C(=O)[C@H](Cc1ccccc1)NC(=O)[C@H](CCNC(=N)N)NC(=O)[C@H](CCNC(=N)N)NC(=O)[C@@H](N)C(C)C)C(=O)N[C@@H](CCNC(=N)N)C(=O)N[C@@H](CCNC(=N)N)C(N)=O [Tritrp–Agb]
4 µM | VKKFPWWWAFLKK-NH2 [Tritrp8–Lys]
4 to 8 µM | CC(C)C[C@H](NC(=O)[C@H](Cc1ccccc1)NC(=O)[C@@H]1CCCN1C(=O)[C@H](Cc1c[nH]c2ccccc12)NC(=O)[C@H](Cc1c[nH]c2ccccc12)NC(=O)[C@H](Cc1c[nH]c2ccccc12)NC(=O)[C@@H]1CCCN1C(=O)[C@H](Cc1ccccc1)NC(=O)[C@H](CCN)NC(=O)[C@H](CCN)NC(=O)[C@@H](N)C(C)C)C(=O)N[C@@H](CCN)C(=O)N[C@@H](CCN)C(N)=O [Tritrp–Dab] (H-V[Dab][Dab]FPWWWPFL[Dab][Dab]-NH2)

Compound | MIC
CC[C@H](C)[C@H](N)C(=O)N[C@@H](CC(C)C)C(=O)N1CCC[C@H]1C(=O)N[C@@H](Cc1c[nH]c2ccccc12)C(=O)N[C@@H](CCCCN)C(=O)N[C@@H](Cc1c[nH]c2ccccc12)C(=O)N1CCC[C@H]1C(=O)N[C@@H](Cc1c[nH]c2ccccc12)C(=O)N[C@@H](Cc1c[nH]c2ccccc12)C(=O)N1CCC[C@H]1C(=O)N[C@@H](Cc1c[nH]c2ccccc12)C(=O)N[C@@H](CCCNC(=N)N)C(=O)N[C@@H](CCCNC(=N)N)C(N)=O [Indolicidin, reference compound] | 8 µM (≈ 15.3 µg/mL)

Same assay, conditions: E. coli ATCC 25922, Mueller-Hinton broth, 5 × 10^5 cfu/mL, 37 °C, 16 h; run in triplicate, range of all three experiments

Compound | MIC
FPVTWKWWKWWKG-NH2 [PuroA–Lys, reference compound] | 8 µM
FPVTWRWWRWWRG-NH2 [PuroA–Arg] | 8 to 16 µM
